Earlier results as cited in patent US20060160783A1, “Novel omeprazole forms and related methods” (Transform Pharmaceuticals, Inc., priority 2004, published 2006).

Experiments:
[1] = according to the '188 Patent
[2] = not given; remark: listed apart in the source

Row | hygroscopicity [1] | solubility in alkaline solutions (alkaline solutions, as a negatively charged ion) | solubility in water (water) | stability in acidic aqueous solutions [2] | Compound
1 | very hygroscopic | – | – | – | COc1ccc2[n-]c([S+]([O-])Cc3ncc(C)c(OC)c3C)nc2c1.[Na+] (centres unmarked) [omeprazole sodium form A]
2 | – | very soluble | only slightly soluble | degrades very rapidly | COc1ccc2[nH]c([S+]([O-])Cc3ncc(C)c(OC)c3C)nc2c1 (centres unmarked) [Omeprazole, 5-methoxy-2-[[(4-methoxy-3,5-dimethyl-2-pyridinyl)methyl]sulfinyl]-1H-benzimidazole]
3 | less hygroscopic than omeprazole form A | – | – | – | COc1ccc2[n-]c([S+]([O-])Cc3ncc(C)c(OC)c3C)nc2c1.[Na+] (centres unmarked) [Omeprazole sodium salt form B]
